{"source": "patent US6465490B1", "about": "“Sulfuric acid mono-[3({1-[2-(4-fluoro-phenyl)-ethyl]-piperidin-4-yl}-hydroxy-methyl)-2-methoxy-phenyl]ester” (Aventis Pharmaceuticals Inc., priority 1999, dated 2002)", "assay": "Bovine Brain Endothelial Cells (BBMEC) transport studies, in vitro blood-brain barrier permeability", "format": "in vitro ADME", "conditions": "mean ± standard deviation", "description": "The compounds of this invention are capable of crossing the blood-brain barrier (BBB) as shown by their ability to penetrate across a membrane of a monolayer of bovine brain microvessel endothelial cells, an in vitro model for B3B permeability.\nBovine Brain Endothelial Cells (BBMEC) TIransport Studies\nThe procedure was performed according to: Kenneth L. Audus et al., Brain Microvessel Endothelial Cell Culture System (Chapter 13) pp 239-258. In Models for Assessing Drug Absorption and Metabolism, Ronald T. Borchardt et al. eds., Plenum Press, New York 1996, incorporated herein by reference."}
{"molecule": "COc1c(O[Si](C(C)C)(C(C)C)C(C)C)cccc1C(OC(=O)[C@@H](OC)c1ccccc1)C1CCN(CCc2ccc(F)cc2)CC1", "note": "(stereo partly drawn) [Example 1C, (S)-Methoxy-2-phenyl-acetic acid {1-[2-(4-fluoro-phenyl)-ethyl]-piperidin-4-yl}-(2-methoxy-3-triisopropylsilanyloxy-phenyl)-methyl ester]", "values": [{"measurement": "Papp at 5.4 µM", "setting": "5.4 μM", "result": "41.4 ± 16.4", "unit": "×10⁻⁶ cm/s"}, {"measurement": "Papp at 16 µM", "setting": "16 μM", "result": "52.5 ± 9.5", "unit": "×10⁻⁶ cm/s"}]}
